Reference: ChEMBL document CHEMBL1201862, “PubChem BioAssay data set” (2004)
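Results reflect a 48-hour exposure of cells in 96-well plates to compound at five concentrations. GI50 is the concentration that inhibits growth by half.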 The source made the active and inactive calls. No stated cut-off is given here; in the data, active = GI50 up to about 1.1 µM and inactive = higher.

Key:
Test in all cases: growth of human tumour cells (NCI), 48 h
CCRF-CEM = tested on: CCRF-CEM
SF-539 = tested on: SF-539
TK-10 = tested on: TK-10
SW-620 = tested on: SW-620
NCI/ADR-RES = tested on: NCI/ADR-RES
OVCAR-4 = tested on: OVCAR-4
HT-29 = tested on: HT-29
SK-MEL-5 = tested on: SK-MEL-5
MDA-MB-231 = tested on: MDA-MB-231
M14 = tested on: M14
CAKI-1 = tested on: CAKI-1
K562 = tested on: K562
COLO 205 = tested on: COLO 205
NCI-H460 = tested on: NCI-H460
OVCAR-5 = tested on: OVCAR-5
MDA-N = tested on: MDA-N
UO-31 = tested on: UO-31
A498 = tested on: A498

| Structure (SMILES) | GI50 (CCRF-CEM) | GI50 (SF-539) | GI50 (TK-10) | GI50 (SW-620) | GI50 (NCI/ADR-RES) | GI50 (OVCAR-4) | GI50 (HT-29) | GI50 (SK-MEL-5) | GI50 (MDA-MB-231) | GI50 (M14) | GI50 (CAKI-1) | GI50 (K562) | GI50 (COLO 205) | GI50 (NCI-H460) | GI50 (OVCAR-5) | GI50 (MDA-N) | GI50 (UO-31) | GI50 (A498) |
| --- | --- | --- | --- | --- | --- | --- | --- | --- | --- | --- | --- | --- | --- | --- | --- | --- | --- | --- |
| O=c1cc(N2CCCC2)[nH]c(=O)n1Cc1ccccc1 | > 100 µM (inactive) | > 100 µM (inactive) | > 100 µM (inactive) | > 100 µM (inactive) | > 100 µM (inactive) | > 100 µM (inactive) | > 100 µM (inactive) | > 100 µM (inactive) | > 100 µM (inactive) | > 100 µM (inactive) | > 100 µM (inactive) | > 100 µM (inactive) | > 100 µM (inactive) | > 100 µM (inactive) | > 100 µM (inactive) | – | – | – |
| CCN(CC)C(=S)N/N=C/c1ccccn1 | < 0.01 µM (active) | < 0.0382 µM (active) | – | < 0.01 µM (active) | < 0.01 µM (active) | – | < 0.01 µM (active) | < 0.0174 µM (active) | < 0.01 µM (active) | 0.0324 µM (active) | < 0.01 µM (active) | < 0.01 µM (active) | < 0.01 µM (active) | 0.0143 µM (active) | 0.2 µM (active) | 0.166 µM (active) | 0.0415 µM (active) | – |
| CC(=O)NNc1nc(C)c(C(=O)/C=C/c2ccc(Cl)c(Cl)c2)s1 | 70.5 µM (inactive) | > 100 µM (inactive) | > 100 µM (inactive) | > 100 µM (inactive) | – | – | > 100 µM (inactive) | > 100 µM (inactive) | – | – | > 100 µM (inactive) | > 100 µM (inactive) | > 100 µM (inactive) | > 100 µM (inactive) | > 100 µM (inactive) | – | > 100 µM (inactive) | > 100 µM (inactive) |
| Cc1ccc(O)c(C2=CC(c3cccc(Cl)c3)SC(=N)N2)c1 (configuration not stated) | 20.1 µM (inactive) | 23 µM (inactive) | 22.4 µM (inactive) | 24.4 µM (inactive) | 29.2 µM (inactive) | 1.77 µM (inactive) | 20.8 µM (inactive) | 16.1 µM (inactive) | – | 26 µM (inactive) | 28.2 µM (inactive) | 19.4 µM (inactive) | 16.9 µM (inactive) | 23.9 µM (inactive) | 26.2 µM (inactive) | 18.8 µM (inactive) | 27.4 µM (inactive) | – |
| COCN1C(=O)[C@@H]2CCCN2C(=O)c2cc([N+](=O)[O-])ccc21 | – | > 100 µM (inactive) | > 100 µM (inactive) | 65.8 µM (inactive) | > 100 µM (inactive) | 76.9 µM (inactive) | 71.9 µM (inactive) | 70.1 µM (inactive) | 61.1 µM (inactive) | > 100 µM (inactive) | 76.7 µM (inactive) | – | 81.3 µM (inactive) | – | 52.7 µM (inactive) | – | 35.5 µM (inactive) | 43 µM (inactive) |
| Cc1cc(C)c(N[S+]([O-])c2ccc(Cl)cc2)c(C)c1 (configuration not stated) | > 100 µM (inactive) | > 100 µM (inactive) | > 100 µM (inactive) | > 100 µM (inactive) | > 100 µM (inactive) | – | > 100 µM (inactive) | – | – | > 100 µM (inactive) | – | > 100 µM (inactive) | > 100 µM (inactive) | > 100 µM (inactive) | > 100 µM (inactive) | 71.1 µM (inactive) | > 100 µM (inactive) | > 100 µM (inactive) |
| Nc1ccc2nc(-c3cccc(Cl)c3)cc(O)c2c1 | 2.14 µM (inactive) | 2.11 µM (inactive) | 2.65 µM (inactive) | 3.55 µM (inactive) | 3.56 µM (inactive) | – | 3.41 µM (inactive) | 3.58 µM (inactive) | 26.5 µM (inactive) | 5.56 µM (inactive) | – | – | 4.81 µM (inactive) | 4.39 µM (inactive) | > 100 µM (inactive) | – | – | – |
| CCCC(=O)n1[nH]c(=O)n(C(C)(C)C)c1=O | > 100 µM (inactive) | – | > 100 µM (inactive) | > 100 µM (inactive) | > 100 µM (inactive) | > 100 µM (inactive) | > 100 µM (inactive) | > 100 µM (inactive) | > 100 µM (inactive) | > 100 µM (inactive) | > 100 µM (inactive) | > 100 µM (inactive) | > 100 µM (inactive) | > 100 µM (inactive) | > 100 µM (inactive) | > 100 µM (inactive) | > 100 µM (inactive) | – |
| CC#CC(O)(C(=O)OC1CC(C)N(C)C(C)(C)C1)C1CCCC1 (configuration not stated) | > 100 µM (inactive) | > 100 µM (inactive) | > 100 µM (inactive) | > 100 µM (inactive) | 29 µM (inactive) | – | > 100 µM (inactive) | > 100 µM (inactive) | > 100 µM (inactive) | > 100 µM (inactive) | > 100 µM (inactive) | > 100 µM (inactive) | > 100 µM (inactive) | – | > 100 µM (inactive) | > 100 µM (inactive) | > 100 µM (inactive) | – |
| COc1ccc(C(C)c2cc3c(cc2O)OCO3)cc1 (configuration not stated) | – | 16.9 µM (inactive) | 16.3 µM (inactive) | 11.5 µM (inactive) | 10.8 µM (inactive) | 31.3 µM (inactive) | 12.6 µM (inactive) | 14.8 µM (inactive) | 14.2 µM (inactive) | 13.8 µM (inactive) | 25.2 µM (inactive) | 6 µM (inactive) | 14.3 µM (inactive) | 14.7 µM (inactive) | 20.6 µM (inactive) | – | 16.2 µM (inactive) | 14.8 µM (inactive) |
| O=C(COc1ccc(Cl)c(Cl)c1)Nc1ccc[n+](Cc2ccc(S(=O)(=O)F)c(Cl)c2)c1 | – | > 100 µM (inactive) | > 100 µM (inactive) | > 100 µM (inactive) | > 100 µM (inactive) | > 100 µM (inactive) | > 100 µM (inactive) | > 100 µM (inactive) | 36.6 µM (inactive) | > 100 µM (inactive) | > 100 µM (inactive) | > 100 µM (inactive) | > 100 µM (inactive) | > 100 µM (inactive) | > 100 µM (inactive) | – | > 100 µM (inactive) | > 100 µM (inactive) |
| CN(C)c1ccc(/C=N/C23CC4CC(CC(C4)C2)C3)cc1 | > 100 µM (inactive) | > 100 µM (inactive) | > 100 µM (inactive) | > 100 µM (inactive) | – | > 100 µM (inactive) | > 100 µM (inactive) | > 10 µM (inactive) | – | > 100 µM (inactive) | > 100 µM (inactive) | > 100 µM (inactive) | > 100 µM (inactive) | > 100 µM (inactive) | > 100 µM (inactive) | – | > 100 µM (inactive) | > 100 µM (inactive) |
| CCCCc1ccc2[n+](c1)C(C(=O)OCC)=PC2 (configuration not stated) | 42.4 µM (inactive) | > 100 µM (inactive) | > 100 µM (inactive) | > 100 µM (inactive) | – | > 100 µM (inactive) | 42.8 µM (inactive) | > 100 µM (inactive) | – | > 100 µM (inactive) | > 100 µM (inactive) | – | > 100 µM (inactive) | > 100 µM (inactive) | > 100 µM (inactive) | 56.9 µM (inactive) | – | > 100 µM (inactive) |
| CCOP(=O)(C=C=C1CCC2[C@@H]3CCc4cc(OC)ccc4C3CC[C@]12C)OCC (some centres not stated) | – | 14.9 µM (inactive) | 12.7 µM (inactive) | 12 µM (inactive) | 6.47 µM (inactive) | 6.24 µM (inactive) | 3.93 µM (inactive) | 2.98 µM (inactive) | – | 11.6 µM (inactive) | 12.9 µM (inactive) | 0.348 µM (active) | 10.5 µM (inactive) | 7.82 µM (inactive) | 17 µM (inactive) | 12.3 µM (inactive) | < 0.01 µM (active) | 12 µM (inactive) |
| CC(=O)O[C@H]1/C(=C/c2ccncc2)C[C@H]2[C@@H]3CC=C4C[C@@H](N5CCCC5)CC[C@]4(C)[C@H]3CC[C@]12C | 15.2 µM (inactive) | 18.6 µM (inactive) | 14.6 µM (inactive) | 12.2 µM (inactive) | 8.95 µM (inactive) | 15.9 µM (inactive) | 1.49 µM (inactive) | 8.53 µM (inactive) | 19.1 µM (inactive) | 9.35 µM (inactive) | 14 µM (inactive) | 2.74 µM (inactive) | 11.4 µM (inactive) | 10.8 µM (inactive) | 13.2 µM (inactive) | – | 4.99 µM (inactive) | 16.7 µM (inactive) |
| Nc1nc(N)c2ncn(Cc3ccccc3CCl)c2n1 | 88.1 µM (inactive) | > 100 µM (inactive) | > 100 µM (inactive) | > 100 µM (inactive) | > 100 µM (inactive) | 80.5 µM (inactive) | > 100 µM (inactive) | 51.1 µM (inactive) | > 100 µM (inactive) | > 100 µM (inactive) | > 100 µM (inactive) | 50.4 µM (inactive) | > 100 µM (inactive) | > 100 µM (inactive) | > 100 µM (inactive) | – | > 100 µM (inactive) | > 100 µM (inactive) |
| CC12ON=C(c3ccccc3)N1C=CN1C(c3ccccc3)=NOC12 (configuration not stated) | – | > 100 µM (inactive) | > 100 µM (inactive) | – | > 100 µM (inactive) | – | – | 13 µM (inactive) | > 100 µM (inactive) | > 100 µM (inactive) | > 100 µM (inactive) | – | 37.2 µM (inactive) | > 100 µM (inactive) | > 100 µM (inactive) | > 100 µM (inactive) | > 100 µM (inactive) | – |
| CCOC(=O)CNc1c(OCc2ccccc2)c(=O)c1=O | > 100 µM (inactive) | – | > 100 µM (inactive) | > 100 µM (inactive) | > 100 µM (inactive) | > 100 µM (inactive) | > 100 µM (inactive) | > 100 µM (inactive) | > 100 µM (inactive) | > 100 µM (inactive) | – | > 100 µM (inactive) | > 100 µM (inactive) | – | > 100 µM (inactive) | > 100 µM (inactive) | > 100 µM (inactive) | – |
